Reference: US20260297083A1, “SUBSTITUTED ACETYLENE COMPOUND DERIVATIVES AND THEIR PHARMACEUTICAL USE” (AVELOS THERAPEUTICS INC., priority 2023, published 2026)

Tested on: DLD-1 BRCA2(−/−) Cell
Assay: Cell viability assay (Resazurin) in DLD1-BRCA2 cells
Assay type: cell-based
Conditions: Homo sapiens, DLD-1, 336 h, 14 days, 1,500 cells/well, final DMSO 1%
Procedure, shortened: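 DLD1-BRCA2 KG cells seeded at 1,500/well (parental 600/well) in RPMI-1640 with 10% FBS, compound added after 4 h (1% DMSO), media replaced every 3-4 days over 14 days at 37° C. Viability read by resazurin (0.1 mg/ml, 4 h) fluorescence at Ex/Em 560/590 nm; IC50 fitted.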

| IC50 [µM] | SMILES |
| --- | --- |
| < 1 | Cc1cc(C(F)(F)F)cc(N2[C@H](C(=O)N(CC#Cc3cnc(-n4ccnn4)cn3)c3ccc(F)c(C)c3)CCS2(=O)=O)n1 [Example 57, (S)-N-(3-(5-(1H-1,2,3-triazol-1-yl)pyrazin-2-yl)prop-2-yn-1-yl)-N-(4-fluoro-3-methylphenyl)-2-(6-methyl-4-(trifluoromethyl)pyridin-2-yl)isothiazolidine-3-carboxamide 1,1-dioxide] |
| < 1 | CCN1CCN(c2cnc(C#CCN(C(=O)[C@@H]3CCS(=O)(=O)N3c3cc(C(F)(F)F)cc(C)n3)c3ccc(F)c(C)c3)cn2)CC1 [Example 50, (S)-N-(3-(5-(4-ethylpiperazin-1-yl)pyrazin-2-yl)prop-2-yn-1-yl)-N-(4-fluoro-3-methylphenyl)-2-(6-methyl-4-(trifluoromethyl)pyridin-2-yl)isothiazolidine-3-carboxamide 1,1-dioxide] |
| < 1 | COc1ccc(C#CCN(C(=O)[C@@H]2CCS(=O)(=O)N2c2cc(C(F)(F)F)cc(C)n2)c2ccc(F)c(C)c2)nn1 [Example 27, (S)-N-(4-fluoro-3-methylphenyl)-N-(3-(6-methoxypyridazin-3-yl)prop-2-yn-1-yl)-2-(6-methyl-4-(trifluoromethyl)pyridin-2-yl)isothiazolidine-3-carboxamide 1,1-dioxide] |
| < 1 | Cc1cc(C(F)(F)F)cc(N2[C@H](C(=O)N(CC#Cc3nc(C(N)=O)co3)c3ccc(F)c(C)c3)CCS2(=O)=O)n1 [Example 104, (S)-2-(3-(N-(4-fluoro-3-methylphenyl)-2-(6-methyl-4-(trifluoromethyl)pyridin-2-yl)-1,1-dioxidoisothiazolidine-3-carboxamido)prop-1-yn-1-yl)oxazole-4-carboxamide] |
| < 1 | Cc1cc(C(F)(F)F)cc(N2[C@H](C(=O)N(CC#Cc3cncc(S(N)(=O)=O)n3)c3ccc(F)c(C)c3)CCS2(=O)=O)n1 [Example 66, (S)-N-(4-fluoro-3-methylphenyl)-2-(6-methyl-4-(trifluoromethyl)pyridin-2-yl)-N-(3-(6-sulfamoylpyrazin-2-yl)prop-2-yn-1-yl)isothiazolidine-3-carboxamide 1,1-dioxide] |
| < 1 | Cc1cc(C(F)(F)F)cc(N2[C@H](C(=O)N(CC#Cc3cnc(NC(C)C)cn3)c3ccc(F)c(C)c3)CCS2(=O)=O)n1 [Example 36, (S)-N-(4-fluoro-3-methylphenyl)-N-(3-(5-(isopropylamino)pyrazin-2-yl)prop-2-yn-1-yl)-2-(6-methyl-4-(trifluoromethyl)pyridin-2-yl)isothiazolidine-3-carboxamide 1,1-dioxide] |
| > 5.1 | Cc1cc(C(F)(F)F)cc(N2[C@H](C(=O)N(CC#Cc3cnc(C(N)=O)cn3)c3ccc(F)c(C)c3)CCS2(=O)=O)n1 [Example 61, (S)-N-(3-(5-carbamoylpyrazin-2-yl)prop-2-yn-1-yl)-N-(4-fluoro-3-methylphenyl)-2-(6-methyl-4-(trifluoromethyl)pyridin-2-yl)isothiazolidine-3-carboxamide 1,1-dioxide] |
| 1.1 to 5 | Cc1cc(C(F)(F)F)cc(N2[C@H](C(=O)N(CC#Cc3cnc(NC(N)=O)cn3)c3ccc(F)c(C)c3)CCS2(=O)=O)n1 [Example 35, (S)-N-(4-fluoro-3-methylphenyl)-2-(6-methyl-4-(trifluoromethyl)pyridin-2-yl)-N-(3-(5-ureidopyrazin-2-yl)prop-2-yn-1-yl)isothiazolidine-3-carboxamide 1,1-dioxide] |
| > 5.1 | Cc1cc(C(F)(F)F)cc(N2[C@H](C(=O)N(CC#Cc3cnc(C(=O)O)cn3)c3ccc(F)c(C)c3)CCS2(=O)=O)n1 [Example 60, (S)-5-(3-(N-(4-fluoro-3-methylphenyl)-2-(6-methyl-4-(trifluoromethyl)pyridin-2-yl)-1,1-dioxidoisothiazolidine-3-carboxamido)prop-1-yn-1-yl)pyrazine-2-carboxylic acid] |
| 1.1 to 5 | Cc1cc(C(F)(F)F)cc(N2[C@H](C(=O)N(CC#Cc3cnc(N4CC5(COC5)C4)cn3)c3ccc(F)c(C)c3)CCS2(=O)=O)n1 [Example 38, (S)-N-(3-(5-(2-oxa-6-azaspiro[3.3]heptan-6-yl)pyrazin-2-yl)prop-2-yn-1-yl)-N-(4-fluoro-3-methylphenyl)-2-(6-methyl-4-(trifluoromethyl)pyridin-2-yl)isothiazolidine-3-carboxamide 1,1-dioxide] |

Continued, compound first:

| SMILES | IC50 [µM] |
| --- | --- |
| Cc1cc(C(F)(F)F)cc(N2[C@H](C(=O)N(CC#Cc3ccc(N4CCOCC4)nc3)c3ccc(F)c(C)c3)CCS2(=O)=O)n1 [Example 85, (S)-N-(4-fluoro-3-methylphenyl)-2-(6-methyl-4-(trifluoromethyl)pyridin-2-yl)-N-(3-(6-morpholinopyridin-3-yl)prop-2-yn-1-yl)isothiazolidine-3-carboxamide 1,1-dioxide] | < 1 |
| Cc1cc(C(F)(F)F)cc(N2[C@H](C(=O)N(CC#Cc3cncc(C(=O)N4CC5CCC(C4)O5)n3)c3ccc(F)c(C)c3)CCS2(=O)=O)n1 [Example 71, (3S)-N-(3-(6-(8-oxa-3-azabicyclo[3.2.1]octane-3-carbonyl)pyrazin-2-yl)prop-2-yn-1-yl)-N-(4-fluoro-3-methylphenyl)-2-(6-methyl-4-(trifluoromethyl)pyridin-2-yl)isothiazolidine-3-carboxamide 1,1-dioxide] | < 1 |
| Cc1cc(C(F)(F)F)cc(N2C(=O)CC[C@H]2C(=O)N(CC#Cc2cnc(N)cn2)c2ccc(F)c(C)c2)n1 [Example 6, (2S)-N-[3-(5-aminopyrazin-2-yl)prop-2-ynyl]-N-(4-fluoro-3-methyl-phenyl)-1-[6-methyl-4-(trifluoromethyl)-2-pyridyl]-5-oxo-pyrrolidine-2-carboxamide] | < 1 |
| Cc1cc(C(F)(F)F)cc(N2[C@H](C(=O)N(CC#Cc3cncc(C(=O)N4CCOCC4)n3)c3ccc(F)c(C)c3)CCS2(=O)=O)n1 [Example 70, (S)-N-(4-fluoro-3-methylphenyl)-2-(6-methyl-4-(trifluoromethyl)pyridin-2-yl)-N-(3-(6-(morpholine-4-carbonyl)pyrazin-2-yl)prop-2-yn-1-yl)isothiazolidine-3-carboxamide 1,1-dioxide] | 1.1 to 5 |
| Cc1cc(C(F)(F)F)cc(N2[C@H](C(=O)N(CC#Cc3ccc(N4CCOCC4)cn3)c3ccc(F)c(C)c3)CCS2(=O)=O)n1 [Example 84, (S)-N-(4-fluoro-3-methylphenyl)-2-(6-methyl-4-(trifluoromethyl)pyridin-2-yl)-N-(3-(5-morpholinopyridin-2-yl)prop-2-yn-1-yl)isothiazolidine-3-carboxamide 1,1-dioxide] | < 1 |
| Cc1cc(C(F)(F)F)cc(N2[C@H](C(=O)N(CC#Cc3cc(N4CCOCC4)nc(C(F)(F)F)n3)c3ccc(F)c(C)c3)CCS2(=O)=O)n1 [Example 76, (S)-N-(4-fluoro-3-methylphenyl)-2-(6-methyl-4-(trifluoromethyl)pyridin-2-yl)-N-(3-(6-morpholino-2-(trifluoromethyl)pyrimidin-4-yl)prop-2-yn-1-yl)isothiazolidine-3-carboxamide 1,1-dioxide] | < 1 |
| Cc1cc(C(F)(F)F)cc(N2[C@H](C(=O)N(CC#Cc3cnc(N4C[C@H](C)N(C(C)C)[C@@H](C)C4)cn3)c3ccc(F)c(C)c3)CCS2(=O)=O)n1 [Example 53, (S)-N-(4-fluoro-3-methylphenyl)-N-(3-(5-((3S,5S)-4-isopropyl-3,5-dimethylpiperazin-1-yl)pyrazin-2-yl)prop-2-yn-1-yl)-2-(6-methyl-4-(trifluoromethyl)pyridin-2-yl)isothiazolidine-3-carboxamide 1,1-dioxide] | < 1 |
| Cc1cc(C(F)(F)F)cc(N2[C@H](C(=O)N(CC#Cc3cncc(C(=O)N4CC5CCC(C4)N5)n3)c3ccc(F)c(C)c3)CCS2(=O)=O)n1 [Example 73, (3S)-N-(3-(6-(3,8-diazabicyclo[3.2.1]octane-3-carbonyl)pyrazin-2-yl)prop-2-yn-1-yl)-N-(4-fluoro-3-methylphenyl)-2-(6-methyl-4-(trifluoromethyl)pyridin-2-yl)isothiazolidine-3-carboxamide 1,1-dioxide] | < 1 |
| CCN(CC)c1ccc(C#CCN(C(=O)[C@@H]2CCS(=O)(=O)N2c2cc(C(F)(F)F)cc(C)n2)c2ccc(F)c(C)c2)nn1 [Example 25, (S)-N-(3-(6-(diethylamino)pyridazin-3-yl)prop-2-yn-1-yl)-N-(4-fluoro-3-methylphenyl)-2-(6-methyl-4-(trifluoromethyl)pyridin-2-yl)isothiazolidine-3-carboxamide 1,1-dioxide] | 1.1 to 5 |
| Cc1cc(C(F)(F)F)cc(N2[C@H](C(=O)N(CC#Cc3ccc(F)c(C(C)C)n3)c3ccc(F)c(C)c3)CCS2(=O)=O)n1 [Example 94, (S)-N-(4-fluoro-3-methylphenyl)-N-(3-(5-fluoro-6-isopropylpyridin-2-yl)prop-2-yn-1-yl)-2-(6-methyl-4-(trifluoromethyl)pyridin-2-yl)isothiazolidine-3-carboxamide 1,1-dioxide] | 1.1 to 5 |
| Cc1cc(C(F)(F)F)cc(N2[C@H](C(=O)N(CC#Cc3ccc(N4CCOCC4)nn3)c3ccc(F)c(C)c3)CCS2(=O)=O)n1 [Example 23, (S)-N-(4-fluoro-3-methylphenyl)-2-(6-methyl-4-(trifluoromethyl)pyridin-2-yl)-N-(3-(6-morpholinopyridazin-3-yl)prop-2-yn-1-yl)isothiazolidine-3-carboxamide 1,1-dioxide] | 1.1 to 5 |
| Cc1cc(C(F)(F)F)cc(N2C(=O)CC[C@H]2C(=O)N(CC#Cc2cccc(=O)[nH]2)c2ccc(F)c(C)c2)n1 [Example 7, (2S)-N-(4-fluoro-3-methyl-phenyl)-1-[6-methyl-4-(trifluoromethyl)-2-pyridyl]-5-oxo-N-[3-(6-oxo-1H-pyridin-2-yl)prop-2-ynyl]pyrrolidine-2-carboxamide] | < 1 |
| Cc1cc(C(F)(F)F)cc(N2[C@H](C(=O)N(CC#Cc3ncc(N4CCOCC4)cn3)c3ccc(F)c(C)c3)CCS2(=O)=O)n1 [Example 79, (S)-N-(4-fluoro-3-methylphenyl)-2-(6-methyl-4-(trifluoromethyl)pyridin-2-yl)-N-(3-(5-morpholinopyrimidin-2-yl)prop-2-yn-1-yl)isothiazolidine-3-carboxamide 1,1-dioxide] | < 1 |
